Source: the supplement of paper PMC12613149
Structures can show the parent of a compound that is named as a salt.

Experiments:
[1] = collision cross section (TIMS, N2 drift gas) of the primary ion; higher = larger gas-phase ion size
[2] = reversed-phase LC retention time (C18, 15 min MeOH gradient); higher = more hydrophobic / later elution
[3] = ionization mode: ESI-, ion species: [M-H]-
[4] = ionization mode: ESI+, ion species: [M+H]+
[5] = ionization mode: ESI+, ion species: [M]+

| SMILES | collision cross section [1, 3] [Å²] | reversed-phase LC retention time [2, 3] [min] | collision cross section [1, 4] [Å²] | reversed-phase LC retention time [2, 4] [min] | collision cross section [1, 5] [Å²] | reversed-phase LC retention time [2, 5] [min] |
| --- | --- | --- | --- | --- | --- | --- |
| CCC(C)c1cc([N+](=O)[O-])cc([N+](=O)[O-])c1O (stereo unspecified) [Dinoseb] | 149.61 | 12.3 |  |  |  |  |
| O=S(=O)(O)c1cccc2c(O)cccc12 [5-Hydroxy-1-naphthalenesulfonic acid] | 143.15 | 2.41 |  |  |  |  |
| COc1cc(C2c3cc4c(cc3C(OC3OC5COC(C)OC5C(O)C3O)C3COC(=O)C23)OCO4)cc(OC)c1O (stereo unspecified) [Etoposide_2] | 241.7 | 11.7 |  |  |  |  |
| CC[C@@H](C(=O)[C@@H](C)[C@@H](O)[C@H](C)[C@@H]1O[C@@H]([C@@H](CC)C(=O)O)CC[C@@H]1C)[C@H]1O[C@]2(C=C[C@@H](O)[C@]3(CC[C@@](C)([C@H]4CC[C@](O)(CC)[C@H](C)O4)O3)O2)[C@H](C)C[C@@H]1C [Salinomycin] | 263.17 | 18.5 |  |  |  |  |
| O=C(O)C(F)(F)C(F)(F)C(F)(F)C(F)(F)C(F)(F)F [Perfluorohexanoic acid] | 138.14 | 12.6 |  |  |  |  |
| O=C(c1ccccc1)c1ccc(O)cc1O [2,4-Dihydroxybenzophenone] | 146.26 | 11.7 |  |  |  |  |
| CN1C(=O)CC[C@H]1c1cccnc1 [Cotinine] |  |  | 143.26 | 3.34 |  |  |
| C[C@]12CCC(=O)C=C1CC[C@@H]1[C@@H]2[C@@H](O)C[C@]2(C)C(=O)CC[C@@H]12 [4-Androsten-11beta-ol-3,17-dione] |  |  | 174.44 | 12.8 |  |  |
| CCNc1nc(O)nc(NC(C)C)n1 [2-Hydroxyatrazine] | 146.65 | 10.7 | 147.52 | 8.5 |  |  |
| CO/N=C(/C1=NOCCO1)c1ccccc1Oc1ncnc(Oc2ccccc2Cl)c1F [Fluoxastrobin] |  |  | 205.37 | 14.8 |  |  |
| CC(CCl)OP(=O)(OC(C)CCl)OC(C)CCl (stereo unspecified) [Tris(1-chloro-2-propyl)phosphate] |  |  | 162.58 | 14.3 |  |  |
| CCCCCCCCCCCC[N+](C)(C)C [Dodecyltrimethylammonium] |  |  |  |  | 176.31 | 15.2 |
| CN1COCN(Cc2cnc(Cl)s2)/C1=N/[N+](=O)[O-] [Thiamethoxam] |  |  | 159.96 | 7.66 |  |  |
| Cc1cccc(C)c1N(Cn1cccn1)C(=O)CO [Metazachlor-2-hydroxy] |  |  | 156.95 | 11.1 |  |  |
| O=C(O)CCCCCCCCCCC(=O)O [Dodecanedioic acid] | 153.38 | 8.22 | 156.8 | 14.7 |  |  |
| CC(=O)N1CCN(c2ccc(OC[C@H]3CO[C@](Cn4ccnc4)(c4ccc(Cl)cc4Cl)O3)cc2)CC1 [Ketoconazole] |  |  | 216.99 | 13.2 |  |  |
| NC(=O)/N=C1\SCCN1Cc1ccc(Cl)nc1 [Thiacloprid amide] |  |  | 159.22 | 8.75 |  |  |
| CC(C)(C)C(=O)C(Oc1ccc(Cl)cc1)n1ccnc1 (stereo unspecified) [Climbazole] |  |  | 172.6 | 13.1 |  |  |
| C#C[C@]1(O)CC[C@H]2[C@@H]3CCC4=CC(=O)CC[C@@H]4[C@H]3CC[C@@]21C [Norethindrone] |  |  | 177.62 | 13.9 |  |  |
| Cc1ccc(O)c(-n2nc3ccccc3n2)c1 [Drometrizole] | 154.28 | 17.1 | 148.63 | 16.7 |  |  |
| CC(C)NCC(O)c1ccc(NS(C)(=O)=O)cc1 (stereo unspecified) [Sotalol] | 170.22 | 7.58 | 166.72 | 5.7 |  |  |

| SMILES | collision cross section [1, 3] [Å²] | reversed-phase LC retention time [2, 3] [min] | collision cross section [1, 4] [Å²] | reversed-phase LC retention time [2, 4] [min] | collision cross section [1, 5] [Å²] | reversed-phase LC retention time [2, 5] [min] |
| --- | --- | --- | --- | --- | --- | --- |
| CCCCCCCCCCCCOS(=O)(=O)O [Dodecyl sulfate] | 166.94 | 16.3 |  |  |  |  |
| N[C@@H](Cc1cc(I)c(Oc2cc(I)c(O)c(I)c2)c(I)c1)C(=O)O [L-Thyroxine] | 208.7 | 13.4 | 217.22 | 14 |  |  |
| CCNC(=O)[C@@H](C)OC(=O)Nc1ccccc1 [Carbetamide] |  |  | 155.79 | 11 |  |  |
| CCCCC(=O)O[C@]1(C(=O)CO)[C@@H](C)C[C@H]2[C@@H]3CCC4=CC(=O)C=C[C@]4(C)[C@@]3(F)[C@@H](O)C[C@@]21C [Betamethasone-17-valerate] | 216.5 | 16 | 216.68 | 15.5 |  |  |
| CCCCc1nc(Cl)c(CO)n1Cc1ccc(-c2ccccc2-c2nn[nH]n2)cc1 [Losartan] | 204 | 13 | 201.04 | 13.3 |  |  |
| COc1ccc2c(c1)c(CC(=O)O)c(C)n2C(=O)c1ccc(Cl)cc1 [Indomethacin] | 188.5 | 13.8 | 182.58 | 15.3 |  |  |
| CCCCCCCCCCCCCCCC[n+]1ccccc1 [Hexadecylpyridinium] |  |  |  |  | 197.5 | 17.5 |
| CCCCCCCCCCCCCCCCCCN [1-Octadecylamine] |  |  | 184.09 | 18.4 |  |  |
| O=c1oc2cc(O)ccc2c2oc3cc(O)ccc3c12 [Coumestrol] | 156.09 | 11.7 | 156.86 | 12.5 |  |  |
| O=P(O)(O)C(F)(F)C(F)(F)C(F)(F)C(F)(F)C(F)(F)C(F)(F)F [Perfluorohexyl phosphonic acid] | 152.3 | 10.5 |  |  |  |  |
| O=C(O)C(F)(F)C(F)(F)C(F)(F)C(F)(F)C(F)(F)C(F)(F)C(F)(F)C(F)(F)C(F)(F)F [Perfluorodecanoic acid] | 173.66 | 16 |  |  |  |  |
| CCCCCCCCOc1ccc(C(=O)c2ccccc2)c(O)c1 [2-Hydroxy-4-(octyloxyl)benzophenone] | 193.31 | 19.6 | 193.92 | 18.9 |  |  |
| CC(CCc1ccccc1)NCC(O)c1ccc(O)c(C(N)=O)c1 (stereo unspecified) [Labetalol] |  |  | 176.34 | 10.5 |  |  |
| CCC1OC(=O)C(C)C(OC2CC(C)(OC)C(O)C(C)O2)C(C)C(OC2OC(C)CC(N(C)C)C2O)C(C)(OC)CC(C)C(=O)C(C)C(O)C1(C)O (stereo unspecified) [Clarithromycin] |  |  | 267.43 | 13.9 |  |  |
| CN/C(=C\[N+](=O)[O-])NCCSCc1ccc(CN(C)C)o1 [Ranitidine] | 181.06 | 10.1 | 168.6 | 6.09 |  |  |
| Cc1cccc(C)c1NC(=O)CS(=O)(=O)O | 149.99 | 7.04 | 152.57 | 7.36 |  |  |
| CS(=O)(=O)c1ccc(C(=O)C2C(=O)CCCC2=O)c(Cl)c1 [Sulcotrione] | 173.26 | 6.87 | 175.92 | 11.1 |  |  |
| Cc1cc(=O)n(-c2ccccc2)n1C [Phenazone] |  |  | 138.2 | 8.8 |  |  |
| CC12CC3CC(C)(C1)CC(N)(C3)C2 [Memantine] |  |  | 144.78 | 11.7 |  |  |
| S=c1nc[nH]c2nc[nH]c12 [6-Mercaptopurine] |  |  | 126.69 | 2.22 |  |  |
| NC(=O)N1c2ccccc2CC(O)c2ccccc21 (stereo unspecified) [10,11-Dihydro-10-hydroxycarbamazepine] |  |  | 154.89 | 10.7 |  |  |

| SMILES | collision cross section [1, 3] [Å²] | reversed-phase LC retention time [2, 3] [min] | collision cross section [1, 4] [Å²] | reversed-phase LC retention time [2, 4] [min] | collision cross section [1, 5] [Å²] | reversed-phase LC retention time [2, 5] [min] |
| --- | --- | --- | --- | --- | --- | --- |
| O=C1C=C(N(Cc2ccc(Cl)nc2)CC(F)F)CO1 [Flupyradifurone] | 163.3 | 9.46 | 164.36 | 9.35 |  |  |
| NC(=O)C1(N2CCCCC2)CCN(CCCC(=O)c2ccc(F)cc2)CC1 [Pipamperone] |  |  | 194.74 | 9.13 |  |  |
| COc1ccc(-c2coc3cc(O)cc(O)c3c2=O)cc1 [Biochanin A] | 166.25 | 12.9 |  |  |  |  |
| NC(=O)N1c2ccccc2C=Cc2ccccc21 [Carbamazepine] |  |  | 150.05 | 12.3 |  |  |
| CC(C1CC1)C(O)(Cn1cncn1)c1ccc(Cl)cc1 (stereo unspecified) [Cyproconazole_2] |  |  | 170.04 | 14.6 |  |  |
| CCCSc1ccc2[nH]c(NC(=O)OC)nc2c1 [Albendazole] | 165.62 | 14.2 | 165.21 | 13.1 |  |  |
| CCCCOC(=O)c1ccccc1C(=O)OCCCC [Dibutylphthalate] |  |  | 169.98 | 16.4 |  |  |
| CC(C)(C)NC(=O)[C@H]1CC[C@H]2[C@@H]3CC[C@H]4NC(=O)C=C[C@]4(C)[C@H]3CC[C@]12C [Finasteride] | 198.56 | 15 | 203.71 | 14.6 |  |  |
| COc1cc(Cl)c(OC)cc1N [4-Chloro-2,5-dimethoxyaniline] |  |  | 143.89 | 10.3 |  |  |
| Nc1ccccc1-c1ccccc1 [2-Aminobiphenyl] |  |  | 141.24 | 12.8 |  |  |
| CCN(CC)c1nc(=O)cc(C)[nH]1 [2-(Diethylamino)-6-methylpyrimidin-4-one] |  |  | 138.67 | 7.54 |  |  |
| CC(C)(C)CC(C)(C)c1ccc(OCCOCC[N+](C)(C)Cc2ccccc2)cc1 [Benzethonium] |  |  |  |  | 211.12 | 16.3 |
| CC(C)(C)c1cc(-n2nc3ccc(Cl)cc3n2)c(O)c(C(C)(C)C)c1 [UV-327] | 199.94 | 22 |  |  |  |  |
| COP(=S)(OC)Oc1ccc(SC)c(C)c1 [Fenthion] |  |  | 160.76 | 14.1 |  |  |
| COc1ccc2c(c1)[nH]c1c(C)nccc12 [Harmine] | 145.84 | 13.5 | 145.04 | 9.71 |  |  |
| CCS(=O)CCSP(=O)(OC)OC (stereo unspecified) [Demeton-S-methyl sulfoxide] |  |  | 142.73 | 7.58 |  |  |
| OCCN1CCN(CC/C=C2/c3ccccc3Sc3ccc(C(F)(F)F)cc32)CC1 [Flupentixol_1] |  |  | 200.91 | 14.9 |  |  |
| CCN(CC)C(=O)c1cccc(C)c1 [DEET] |  |  | 142.86 | 13 |  |  |
| O=C(O)c1ccccc1Nc1cccc(C(F)(F)F)c1 [Flufenamic acid] | 159.1 | 14 |  |  |  |  |
